Assay results published in patent US20250388560A1, “AROMATIC COMPOUND AND USE THEREOF” (HITGEN INC., priority 2023, published 2025).

Target: TRIM21 protein (Homo sapiens (Human), UniProt P19474)
Test: SPR binding assay (Biacore 8K) of compounds to immobilised TRIM21 protein
Details: 25° C., steady state affinity model (1:1 binding model), read-out: TRIM21 Kd Test Value
Procedure: The protein fixation buffer, the running buffer A and the running buffer B were prepared and filtered through a […] membrane prior to use.
A surface of a CM5 chip was washed for three times with 50 mM NaOH at a flow rate of 60.0 μL/min and 60 seconds per wash. […] The CM5 chip was activated for 420 s at a flow rate of 6.0 μL/min. A strep tactin XT fixation buffer fixation built in the twin strep tag capture kit was used to prepare a 50.0 µg/mL Strep tactin XT. The Strep tactin XT was injected at a flow rate of 5.0 μL/min for 600 s. After injection of […], 1 M ethanolamine from the amine coupling kit was injected at a flow rate of 6.0 μL/min for 7 min to close the surface of the CM5 chip.
The running buffer A was used as the protein fixation buffer. The protein fixation buffer and the TRIM21 protein were mixed to prepare a 40.0 µg/mL mixed solution. The 40.0 µg/mL mixed solution was injected at flow rate of 5.0 μL/min for 600 s, and the TRIM21 protein was captured on the CM5 chip through Strep tactin XT.
A compound to be tested was diluted with 100% DMSO to a concentration that was 100 times a required final concentration and mixed evenly, and […] of such solution was added into […] of the running buffer A, followed by centrifugation at 15,000 rpm for 5 min to obtain an X compound solution contained with 1% DMSO.
The X compound was subjected to 8-point, 2-fold serial dilutions with the running buffer B, starting from an initial concentration. The diluted X compound was transferred into the 96-well plate for sample injection.
A Biacore 8K Control software was started, and tests were run in a 25° C. environment. During program running, the running buffer B was used at a flow rate of 30.0 μL/min. The running buffer B was injected for three times to complete balance. […] An injection needle was cleaned with 50% DMSO after each injection.
A response value of binding of the X compound and the TRIM21 protein was corrected after deducting a reference channel and 0 concentration. A binding affinity Kd was matched by a steady state affinity model (1:1 binding model) through the Biacore Insight Evaluation Software.
The binding affinities between X compounds of the embodiments of the present disclosure were tested according the above method.

Sequence of TRIM21 protein (P19474 whole entry, species assumed): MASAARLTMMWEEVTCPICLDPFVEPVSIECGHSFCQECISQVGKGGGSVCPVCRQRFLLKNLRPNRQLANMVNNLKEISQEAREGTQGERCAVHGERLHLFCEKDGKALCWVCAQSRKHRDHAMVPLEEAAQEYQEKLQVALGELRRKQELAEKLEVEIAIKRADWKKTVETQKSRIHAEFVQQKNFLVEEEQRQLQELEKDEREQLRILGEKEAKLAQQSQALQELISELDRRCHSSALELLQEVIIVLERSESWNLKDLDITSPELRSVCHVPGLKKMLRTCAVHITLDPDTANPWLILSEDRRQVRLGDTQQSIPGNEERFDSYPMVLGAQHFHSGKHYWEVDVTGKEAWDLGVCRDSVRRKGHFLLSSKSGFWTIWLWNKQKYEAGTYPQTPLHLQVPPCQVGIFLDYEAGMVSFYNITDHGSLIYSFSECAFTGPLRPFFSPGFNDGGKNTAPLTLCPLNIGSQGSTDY

Row | SMILES | Kd [nM]
1 | CSc1ccccc1-c1ccc(C(=O)N(C)CC2(F)CCCCC2)c(S(C)(=O)=O)c1 [Compound 6] | 100 to 1000
2 | CSc1ccccc1-c1ccc(C(=O)N(C)CC2CCCCC2(F)F)c(S(C)(=O)=O)c1 (stereo not shown) [Compound 5] | 1000 to 10000
3 | COc1ccccc1-c1ccc(C(=O)N(C)[C@H](C)C2CCC2)c(S(C)(=O)=O)c1 [Compound 24] | 1000 to 10000
4 | CCC(CC)CN(C)C(=O)c1ccc(-c2ccccc2SC)cc1S(C)(=O)=O [Compound 10] | 100 to 1000
5 | CSc1ccccc1-c1ccc(C(=O)N(C)Cc2cc[nH]c(=O)c2)c(S(C)(=O)=O)c1 [Compound 18] | 1000 to 10000
6 | CSc1ccccc1-c1ccc(C(=O)N(C)CC2CCOCC2)c(S(C)(=O)=O)c1 [Compound 23] | 10 to 100
7 | CSc1ccccc1-c1ccc(C(=O)N(C)Cc2ccsc2)c(S(C)(=O)=O)c1 [Compound 4] | 100 to 1000
8 | COc1ccccc1-c1ccc(C(=O)N(C)CC2CCOC2)c(S(C)(=O)=O)c1 (stereo not shown) [Compound 25] | 1000 to 10000
9 | COc1cc(CN(C)C(=O)c2ccc(-c3ccccc3OC)cc2S(C)(=O)=O)ccn1 [Compound 27] | 10 to 100
10 | CSc1ccccc1-c1ccc(C(=O)N(C)[C@H](C)C2CCCC2)c(S(C)(=O)=O)c1 [Compound 20] | 100 to 1000
11 | CSc1ccccc1-c1ccc(C(=O)N(C)[C@H](C)C2CCC2)c(S(C)(=O)=O)c1 [Compound 14] | 100 to 1000
12 | COc1ccccc1-c1ccc(C(=O)N(C)Cc2cc[nH]c(=O)c2)c(S(C)(=O)=O)c1 [Compound 28] | 10 to 100
13 | CSc1ccccc1-c1ccc(C(=O)N(C)CC2CN(C(C)=O)C2)c(S(C)(=O)=O)c1 [Compound 13] | 100 to 1000
14 | CN(CC1CCCCC1)C(=O)c1ccc(-c2cccc3ccoc23)cc1S(C)(=O)=O [Compound 47] | > 10000
15 | CCc1ccccc1CN(C)C(=O)c1ccc(-c2ccccc2SC)cc1S(C)(=O)=O [Compound 8] | 100 to 1000
16 | CSc1ccccc1-c1ccc(C(=O)N(C)Cc2ccc3c(c2)OCO3)c(S(C)(=O)=O)c1 [Compound 3] | 10 to 100
17 | COc1ccccc1-c1ccc(C(=O)N(C)CC2CCC(O)CC2)c(S(C)(=O)=O)c1 (stereo not shown) [Compound 35] | 100 to 1000
18 | CSc1ccccc1-c1ccc(C(=O)N(C)[C@H](C)C2CC2)c(S(C)(=O)=O)c1 [Compound 19] | 100 to 1000
19 | CSc1ccccc1-c1ccc(C(=O)N(C)c2ccccc2)c(S(C)(=O)=O)c1 [Compound 12] | 1000 to 10000
20 | CSc1ccccc1-c1ccc(C(=O)N(C)CC2CCOC2)c(S(C)(=O)=O)c1 (stereo not shown) [Compound 15] | 100 to 1000
21 | CSc1ccccc1-c1ccc(C(=O)N(C)Cc2cc[nH]c2)c(S(C)(=O)=O)c1 [Compound 11] | 10 to 100
22 | CSc1ccccc1-c1ccc(C(=O)N(C)CC2CCCCC2)c(S(C)(=O)=O)c1 [Compound 2] | 100 to 1000
23 | CSc1ccccc1-c1ccc(C(=O)N(C)Cc2cnoc2)c(S(C)(=O)=O)c1 [Compound 7] | 100 to 1000
24 | COc1ccccc1-c1ccc(C(=O)N(C)CC2CN(C(C)=O)C2)c(S(C)(=O)=O)c1 [Compound 26] | > 10000
25 | COc1cc(F)ccc1-c1ccc(C(=O)N(C)CC2CCCCC2)c(S(C)(=O)=O)c1 [Compound 52] | 1 to 10
26 | COc1cc(CN(C)C(=O)c2ccc(-c3ccccc3SC)cc2S(C)(=O)=O)ccn1 [Compound 16] | 100 to 1000
27 | CSc1ccccc1-c1ccc(C(=O)N(C)C2CCCCC2)c(S(C)(=O)=O)c1 [Compound 9] | 1000 to 10000
28 | CNC(=O)c1ccc(-c2ccccc2SC)cc1S(C)(=O)=O [Compound 1] | 100 to 1000

More lines, now with the values ahead:

Row | Kd [nM] | SMILES
29 | 100 to 1000 | CC(C)c1ccccc1-c1ccc(C(=O)N(C)CC2CCCCC2)c(S(C)(=O)=O)c1 [Compound 46]
30 | 10 to 100 | CN(CC1CCCCC1)C(=O)c1ccc(-c2ccc(F)cc2C2CC2)cc1S(C)(=O)=O [Compound 41]
31 | 100 to 1000 | CN(CC1CCCCC1)C(=O)c1ccc(-c2ccccc2C(F)(F)F)cc1S(C)(=O)=O [Compound 39]
32 | 1000 to 10000 | COc1ccccc1-c1ccc(C(=O)N(C)[C@H](C)C2CCCC2)c(S(C)(=O)=O)c1 [Compound 33]
33 | 1000 to 10000 | COc1ccccc1-c1ccc(C(=O)N(C)C(C)C2COC2)c(S(C)(=O)=O)c1 (stereo not shown) [Compound 31]
34 | 1000 to 10000 | CN(CC1CCCCC1)C(=O)c1ccc(-c2ccccc2F)cc1S(C)(=O)=O [Compound 45]
35 | 1000 to 10000 | CN(CC1CCCCC1)C(=O)c1ccc(-c2ccc(F)cc2)cc1S(C)(=O)=O [Compound 54]
36 | 10 to 100 | COc1ccccc1-c1ccc(C(=O)N(C)Cc2cc[nH]c2)c(S(C)(=O)=O)c1 [Compound 29]
37 | 100 to 1000 | Cc1ccccc1-c1ccc(C(=O)N(C)CC2CCCCC2)c(S(C)(=O)=O)c1 [Compound 38]
38 | 1000 to 10000 | COc1ccccc1-c1ccc(C(=O)N(C)CC2COC2)c(S(C)(=O)=O)c1 [Compound 30]
39 | 100 to 1000 | CN(CC1CCCCC1)C(=O)c1ccc(-c2ccccc2C(C)(C)O)cc1S(C)(=O)=O [Compound 42]
40 | 1000 to 10000 | COc1ccccc1-c1ccc(C(=O)N(C)[C@H](C)C2CC2)c(S(C)(=O)=O)c1 [Compound 32]
41 | 100 to 1000 | COc1ccccc1-c1ccc(C(=O)N(C)CC2CCCCC2)c(S(C)(=O)=O)c1 [Compound 37]
42 | 100 to 1000 | COc1ccccc1-c1ccc(C(=O)N(C)CC2CCOCC2)c(S(C)(=O)=O)c1 [Compound 34]
43 | 1000 to 10000 | COc1cnccc1-c1ccc(C(=O)N(C)CC2CCCCC2)c(S(C)(=O)=O)c1 [Compound 43]
